# Source: the supplement of paper PMC11061612
# Experiments:
# NOS-1 (Osteosarcoma) = experiment: combination Emax (second highest fraction inhibited in the dose matrix, 72 h); higher = more inhibition; extreme values may be limits of the assay
# Outline: (§1)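 Bliss excess equals the observed combination effect minus the expected value EA + EB − EA·EB, where EA and EB are the effects of each agent alone. Combination Emax is the second-highest inhibition within the matrix. Inhibition was scaled from CellTiter-Glo 2.0 luminescence, with 0 set by vehicle wells and 1 by blank wells, after 72 hours of two-drug dosing of cells plated in 1536-well plates.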
# [1] = system: TE-15 (Esophageal Squamous Cell Carcinoma); experiment: as above
# Outline: as §1
# [2] = system: COLO-205 (Colorectal Carcinoma); experiment: as above
# Outline: as §1
# [3] = system: MDA-MB-361 (Breast Carcinoma); experiment: as above
# Outline: as §1
# [4] = system: HuP-T4 (Pancreatic Carcinoma); experiment: as above
# Outline: as §1
# [5] = system: KP-1N (Pancreatic Carcinoma); experiment: as above
# Outline: as §1
# [6] = system: EC-GI-10 (Esophageal Squamous Cell Carcinoma); experiment: as above
# Outline: as §1
# [7] = system: B-CPAP (Thyroid Gland Carcinoma); experiment: as above
# Outline: as §1
# [8] = system: MFE-296 (Endometrial Carcinoma); experiment: as above
# Outline: as §1
# [9] = system: LU-135 (Small Cell Lung Carcinoma); experiment: as above
# Outline: as §1
# [10] = system: SNU-5 (Gastric Carcinoma); experiment: as above
# Outline: as §1
# [11] = system: LS-180 (Colorectal Carcinoma); experiment: as above
# Outline: as §1
# [12] = system: Calu-3 (Lung Adenocarcinoma); experiment: as above
# Outline: as §1
# AGS (Gastric Carcinoma) [13] = experiment: as above
# Outline: as §1
# [14] = system: MDA-MB-361 (Breast Carcinoma); experiment: Bliss excess, mean over the matrix (fraction); higher = more synergy
# Outline: as §1
# KELLY (Neuroblastoma) = experiment: as above
# Outline: as §1
# [15] = system: MFE-296 (Endometrial Carcinoma); experiment: as above
# Outline: as §1
# [16] = system: SK-ES-1 (Ewing's Sarcoma); experiment: as above
# Outline: as §1
# AGS (Gastric Carcinoma) [17] = experiment: as above
# Outline: as §1
# [18] = system: TE-9 (Esophageal Squamous Cell Carcinoma); experiment: as above
# Outline: as §1
Compound,combination Emax (NOS-1 (Osteosarcoma)),combination Emax [1],combination Emax [2],combination Emax [3],combination Emax [4],combination Emax [5],combination Emax [6],combination Emax [7],combination Emax [8],combination Emax [9],combination Emax [10],combination Emax [11],combination Emax [12],combination Emax (AGS (Gastric Carcinoma) [13]),Bliss excess [14],Bliss excess (KELLY (Neuroblastoma)),Bliss excess [15],Bliss excess [16],Bliss excess (AGS (Gastric Carcinoma) [17]),Bliss excess [18]
"Cn1cnc2c(F)c(Nc3ccc(Br)cc3Cl)c(C(=O)NOCCO)cc21 [Selumetinib] + CC(C)n1c(=O)n(C)c2cnc3cc(F)c(-c4ccc(OCCCN5CCCCC5)nc4)cc3c21 [AZD1390] (first compound max 10 µM, 7x7, partner max 0.3 µM)",0.257,0.409,0.705,0.12,0.293,0.102,0.323,0.254,0.0966,0.136,0.54,0.573,0.115,0.842,-0.044,-0.0177,-0.0529,-0.0246,-0.0446,-0.0228
"Cn1cnc2c(F)c(Nc3ccc(Br)cc3Cl)c(C(=O)NOCCO)cc21 [Selumetinib] + CCN(CCO)CCCOc1ccc2c(Nc3cc(CC(=O)Nc4cccc(F)c4)[nH]n3)ncnc2c1 [AZD2811] (first compound max 10 µM, 7x7, partner max 1 µM)",0.313,0.492,0.983,0.193,0.421,0.135,0.546,0.346,0.125,0.933,0.569,0.623,0.134,0.954,-0.004,-0.0709,-0.0309,-0.0272,0.11,-0.0347
"Cn1cnc2c(F)c(Nc3ccc(Br)cc3Cl)c(C(=O)NOCCO)cc21 [Selumetinib] + C[C@@H]1COCCN1C2=NC(=NC(=C2)C3(CC3)[S@](=N)(=O)C)C4=C5C=CNC5=NC=C4 [AZD6738] (first compound max 10 µM, 7x7, partner max 10 µM)",0.784,0.834,0.76,0.795,0.568,0.175,0.647,0.421,0.339,0.753,0.961,0.76,0.408,0.986,-0.0396,-0.015,-0.0543,-0.005,0.0281,-0.0063
"CC(=O)Nc1cccc(-n2c(=O)n(C3CC3)c(=O)c3c(Nc4ccc(I)cc4F)n(C)c(=O)c(C)c32)c1 [Trametinib] + Cc1nc(-c2cn3c(n2)-c2ccc(-c4cnn(C(C)(C)C(N)=O)c4)cc2OCC3)n(C(C)C)n1 [Taselisib] (first compound max 1 µM, 7x7, partner max 10 µM)",0.928,0.664,0.946,0.976,0.832,0.644,1,0.558,0.43,0.514,0.829,0.903,0.972,1,0.0263,0.132,0.0323,0.0641,0.122,0.073
"CC1(C)CCC(CN2CCN(c3ccc(C(=O)NS(=O)(=O)c4ccc(NCC5CCOCC5)c([N+](=O)[O-])c4)c(Oc4cnc5[nH]ccc5c4)c3)CC2)=C(c2ccc(Cl)cc2)C1 [Venetoclax] + C1CN(CCC1(C(=O)N[C@@H](CCO)C2=CC=C(C=C2)Cl)N)C3=NC=NC4=C3C=CN4 [Capivasertib] (first compound max 1 µM, 7x7, partner max 3 µM)",0.171,0.401,0.237,0.474,0.0995,0.172,0.426,0.177,0.37,0.317,0.336,0.287,0.174,0.316,0.0068,0.0017,-0.0063,0.0068,-0.0406,-0.0114
"CC1(C)CCC(CN2CCN(c3ccc(C(=O)NS(=O)(=O)c4ccc(NCC5CCOCC5)c([N+](=O)[O-])c4)c(Oc4cnc5[nH]ccc5c4)c3)CC2)=C(c2ccc(Cl)cc2)C1 [Venetoclax] + C=CCn1c(=O)c2cnc(Nc3ccc(N4CCN(C)CC4)cc3)nc2n1-c1cccc(C(C)(C)O)n1 [AZD1775] (first compound max 1 µM, partner max 1 µM)",0.675,0.796,0.606,0.865,0.378,0.44,0.903,0.502,0.3,0.688,0.557,0.42,0.218,0.595,0.0331,0.0593,-0.0391,0.0455,-0.0506,0.0674
"CC1(C)CCC(CN2CCN(c3ccc(C(=O)NS(=O)(=O)c4ccc(NCC5CCOCC5)c([N+](=O)[O-])c4)c(Oc4cnc5[nH]ccc5c4)c3)CC2)=C(c2ccc(Cl)cc2)C1 [Venetoclax] + CCN(CCO)CCCOc1ccc2c(Nc3cc(CC(=O)Nc4cccc(F)c4)[nH]n3)ncnc2c1 [AZD2811] (first compound max 1 µM, 7x7, partner max 1 µM)",0.255,0.441,0.713,0.334,0.263,0.162,0.308,0.206,0.124,0.899,0.151,0.244,0.175,0.346,0.0884,0.0038,-0.013,0.0156,0.0196,-0.0184
"CC1(C)CCC(CN2CCN(c3ccc(C(=O)NS(=O)(=O)c4ccc(NCC5CCOCC5)c([N+](=O)[O-])c4)c(Oc4cnc5[nH]ccc5c4)c3)CC2)=C(c2ccc(Cl)cc2)C1 [Venetoclax] + CN(C)CCCOc1ccc(-c2ccc3ncc4c(c3c2)n(C2CCOCC2)c(=O)n4C)cn1 [AZD0156] (first compound max 1 µM, 7x7, partner max 1 µM)",0.194,0.451,0.237,0.261,0.144,0.138,0.221,0.28,0.144,0.274,0.222,0.166,0.121,0.221,0.0156,0.0158,0.0003,0.0502,-0.0191,-0.0213
"CC1(C)CCC(CN2CCN(c3ccc(C(=O)NS(=O)(=O)c4ccc(NCC5CCOCC5)c([N+](=O)[O-])c4)c(Oc4cnc5[nH]ccc5c4)c3)CC2)=C(c2ccc(Cl)cc2)C1 [Venetoclax] + COc1cc(Nc2ncc3c(n2)-c2ccc(Cl)cc2C(c2c(F)cccc2OC)=NC3)ccc1C(=O)O [Alisertib] (first compound max 1 µM, 7x7, partner max 10 µM)",0.575,0.686,0.693,0.773,0.355,0.357,0.554,0.598,0.225,0.797,0.158,0.489,0.171,0.557,0.147,0.0343,-0.0285,0.097,0.0353,0.0148
"CC1(C)CCC(CN2CCN(c3ccc(C(=O)NS(=O)(=O)c4ccc(NCC5CCOCC5)c([N+](=O)[O-])c4)c(Oc4cnc5[nH]ccc5c4)c3)CC2)=C(c2ccc(Cl)cc2)C1 [Venetoclax] + C[C@@H]1COCCN1C2=NC(=NC(=C2)C3(CC3)[S@](=N)(=O)C)C4=C5C=CNC5=NC=C4 [AZD6738] (first compound max 1 µM, 7x7, partner max 10 µM)",0.67,0.796,0.344,0.884,0.394,0.235,0.608,0.631,0.387,0.761,0.934,0.728,0.265,0.72,-0.0214,0.0209,-0.0296,0.0104,-0.0423,-0.0019
"CC1(C)CCC(CN2CCN(c3ccc(C(=O)NS(=O)(=O)c4ccc(NCC5CCOCC5)c([N+](=O)[O-])c4)c(Oc4cnc5[nH]ccc5c4)c3)CC2)=C(c2ccc(Cl)cc2)C1 [Venetoclax] + C[C@@H](Nc1cc(F)cc(F)c1)c1cc(C(=O)N(C)C)cc2c(=O)cc(N3CCOCC3)oc12 [AZD8186] (first compound max 1 µM, 7x7, partner max 3 µM)",0.462,0.369,0.285,0.372,0.195,0.235,0.131,0.132,0.0282,0.484,0.406,0.184,0.0911,0.106,-0.0151,0.0068,-0.0248,0.0802,-0.0458,-0.0185
"CC1(C)CCC(CN2CCN(c3ccc(C(=O)NS(=O)(=O)c4ccc(NCC5CCOCC5)c([N+](=O)[O-])c4)c(Oc4cnc5[nH]ccc5c4)c3)CC2)=C(c2ccc(Cl)cc2)C1 [Venetoclax] + Cc1cc2ncnn2cc1Nc1ncc2c(n1)n(C1CCOCC1)c(=O)n2C [AZD7648] (first compound max 1 µM, 7x7, partner max 10 µM)",0.244,0.295,0.213,0.44,0.202,0.108,0.436,0.281,0.147,0.386,0.325,0.275,0.155,0.199,0.0398,-0.0064,-0.0065,0.0203,-0.0505,-0.0175
